Activity calls are given as the source filed them.
Columns and labels:
Large T antigen = Large T antigen (Simian virus 40, UniProt P03070); type: functional, Betapolyomavirus macacae;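 further: Confirmatory-stage PubChem screen for compounds that inhibit SV40 T antigen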
[1] = biological target: Induced myeloid leukemia cell differentiation protein Mcl-1 (Homo sapiens, UniProt Q07820); type: functional
[2] = biological target: T1, Replicative DNA helicase DnaB (Mycobacterium tuberculosis, UniProt P9WMR3); assay: DnaB intein splicing inhibitors, dose response, biochemical, cell-free fluorescence (AID 449749); type: functional
T1 sequence (P9WMR3 whole entry): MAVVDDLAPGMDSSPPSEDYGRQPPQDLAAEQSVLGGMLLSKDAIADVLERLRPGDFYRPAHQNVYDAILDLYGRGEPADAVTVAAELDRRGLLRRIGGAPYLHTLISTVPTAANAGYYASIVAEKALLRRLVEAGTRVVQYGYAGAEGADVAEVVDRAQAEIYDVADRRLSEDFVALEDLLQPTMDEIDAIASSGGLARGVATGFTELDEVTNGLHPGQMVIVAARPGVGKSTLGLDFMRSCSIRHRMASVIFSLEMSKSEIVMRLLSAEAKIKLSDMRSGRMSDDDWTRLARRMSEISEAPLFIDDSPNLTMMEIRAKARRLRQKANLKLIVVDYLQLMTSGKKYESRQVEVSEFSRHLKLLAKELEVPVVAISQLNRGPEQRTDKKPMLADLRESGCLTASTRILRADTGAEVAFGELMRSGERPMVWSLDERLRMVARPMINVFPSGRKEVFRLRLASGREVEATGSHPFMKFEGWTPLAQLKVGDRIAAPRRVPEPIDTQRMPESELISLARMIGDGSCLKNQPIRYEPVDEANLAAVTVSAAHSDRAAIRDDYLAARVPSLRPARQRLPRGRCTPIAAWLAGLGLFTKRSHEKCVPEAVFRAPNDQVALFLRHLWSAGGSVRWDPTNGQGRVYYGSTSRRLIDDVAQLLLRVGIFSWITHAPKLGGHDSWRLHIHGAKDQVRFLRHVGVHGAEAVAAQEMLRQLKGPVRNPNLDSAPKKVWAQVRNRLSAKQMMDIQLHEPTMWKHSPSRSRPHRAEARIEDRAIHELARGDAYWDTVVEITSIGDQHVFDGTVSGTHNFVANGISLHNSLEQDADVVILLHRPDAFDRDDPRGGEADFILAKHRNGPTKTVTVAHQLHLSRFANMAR

Protein RecA = biological target: T2, Protein RecA (Mycobacterium tuberculosis, UniProt P9WHJ3); assay: Fluorescence Cell-Free Homogeneous Dose Retest to Identify Inhibitors of RecA-Intein Splicing Activity. [Related pubchem assays (depositor defined):AID2097, AID2223, AID489010, AID492950]; type: functional
T2 sequence (P9WHJ3 whole entry): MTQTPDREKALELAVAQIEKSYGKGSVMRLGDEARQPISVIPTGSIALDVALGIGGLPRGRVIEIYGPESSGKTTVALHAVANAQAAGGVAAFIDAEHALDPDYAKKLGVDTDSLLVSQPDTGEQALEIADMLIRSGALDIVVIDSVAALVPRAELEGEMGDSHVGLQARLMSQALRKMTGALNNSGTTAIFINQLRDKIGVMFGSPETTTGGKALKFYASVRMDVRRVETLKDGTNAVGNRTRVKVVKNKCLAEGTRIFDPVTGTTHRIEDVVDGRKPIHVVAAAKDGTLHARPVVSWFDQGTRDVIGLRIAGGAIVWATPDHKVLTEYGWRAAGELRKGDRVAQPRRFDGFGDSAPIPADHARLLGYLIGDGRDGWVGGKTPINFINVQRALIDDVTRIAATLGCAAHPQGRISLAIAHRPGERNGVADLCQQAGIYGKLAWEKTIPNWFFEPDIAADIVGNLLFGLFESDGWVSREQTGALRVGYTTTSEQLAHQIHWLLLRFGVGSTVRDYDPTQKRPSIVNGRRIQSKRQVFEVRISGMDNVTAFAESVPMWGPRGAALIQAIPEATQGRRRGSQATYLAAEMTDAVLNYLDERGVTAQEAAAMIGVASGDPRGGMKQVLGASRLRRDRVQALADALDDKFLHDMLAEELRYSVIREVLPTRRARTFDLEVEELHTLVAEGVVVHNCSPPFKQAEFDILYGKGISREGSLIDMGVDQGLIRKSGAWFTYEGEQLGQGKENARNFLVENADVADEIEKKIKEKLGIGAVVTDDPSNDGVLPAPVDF

[3] = biological target: T3, Small ubiquitin-related modifier 1 (Homo sapiens, UniProt P63165); assay: SUMO1 protein interaction blockers, potency – biochemical, fluorescence polarization, uHTS hits, dose response (AID 624382); type: functional; conditions: read-out: IC50_Mean
[4] = biological target: T3, Small ubiquitin-related modifier 1; assay: SUMO1 protein-protein binding blockers, potency – biochemical, FRET, dose response (AID 624383); type: functional; conditions: read-out: IC50_Mean
[5] = biological target: T4, Histone-lysine N-methyltransferase NSD2 (Homo sapiens, UniProt O96028); type: biochemical
T4 sequence (O96028 whole entry): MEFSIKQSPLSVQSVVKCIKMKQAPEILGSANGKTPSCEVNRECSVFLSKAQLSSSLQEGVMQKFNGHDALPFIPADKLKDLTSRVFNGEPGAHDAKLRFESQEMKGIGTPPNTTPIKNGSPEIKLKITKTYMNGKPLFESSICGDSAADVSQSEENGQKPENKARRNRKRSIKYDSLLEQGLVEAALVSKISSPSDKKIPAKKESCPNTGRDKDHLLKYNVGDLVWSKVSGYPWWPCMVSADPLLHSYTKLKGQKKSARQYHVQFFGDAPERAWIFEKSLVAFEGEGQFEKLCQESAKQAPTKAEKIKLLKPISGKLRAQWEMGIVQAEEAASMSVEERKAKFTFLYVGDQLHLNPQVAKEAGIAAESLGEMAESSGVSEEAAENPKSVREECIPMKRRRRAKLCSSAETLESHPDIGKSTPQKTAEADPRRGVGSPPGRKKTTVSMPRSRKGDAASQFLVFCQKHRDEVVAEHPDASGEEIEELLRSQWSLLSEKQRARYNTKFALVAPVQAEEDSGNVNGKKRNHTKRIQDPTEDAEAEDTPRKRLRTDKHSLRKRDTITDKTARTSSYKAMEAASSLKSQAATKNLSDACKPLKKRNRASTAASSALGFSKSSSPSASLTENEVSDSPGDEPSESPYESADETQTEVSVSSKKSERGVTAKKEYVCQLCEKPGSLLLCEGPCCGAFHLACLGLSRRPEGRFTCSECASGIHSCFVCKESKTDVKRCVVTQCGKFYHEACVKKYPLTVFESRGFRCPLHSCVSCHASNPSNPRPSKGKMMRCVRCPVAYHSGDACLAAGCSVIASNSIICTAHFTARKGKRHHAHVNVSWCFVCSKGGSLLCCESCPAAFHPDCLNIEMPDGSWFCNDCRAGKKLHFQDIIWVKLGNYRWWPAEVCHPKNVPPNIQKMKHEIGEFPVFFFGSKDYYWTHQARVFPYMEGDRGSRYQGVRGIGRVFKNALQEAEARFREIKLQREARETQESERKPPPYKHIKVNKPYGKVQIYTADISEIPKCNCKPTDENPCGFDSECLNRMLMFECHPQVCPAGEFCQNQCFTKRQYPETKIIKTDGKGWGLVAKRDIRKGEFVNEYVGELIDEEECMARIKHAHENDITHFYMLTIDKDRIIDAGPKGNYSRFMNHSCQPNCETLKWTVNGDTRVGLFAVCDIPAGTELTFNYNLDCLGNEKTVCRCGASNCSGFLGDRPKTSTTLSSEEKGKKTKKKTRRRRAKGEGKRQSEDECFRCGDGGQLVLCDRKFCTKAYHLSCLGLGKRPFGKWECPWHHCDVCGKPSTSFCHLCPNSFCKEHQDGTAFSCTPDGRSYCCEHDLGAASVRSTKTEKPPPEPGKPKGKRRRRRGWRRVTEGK

[6] = biological target: DNA dC->dU-editing enzyme APOBEC-3A (Homo sapiens, UniProt P31941); assay: Dose Response confirmation of small molecule APOBEC3A DNA Deaminase Inhibitors via a fluorescence-based single-stranded DNA deaminase assay. [Related pubchem assays (depositor defined):AID493011, AID493024]; type: functional
[7] = biological target: DNA dC->dU-editing enzyme APOBEC-3G (Homo sapiens, UniProt Q9HC16); type: functional;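 further: Dose-response counterscreen measuring inhibition of APOBEC3G DNA deaminase activity, run while confirming APOBEC3A inhibitors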
BJ [8] = assay: BJ-TERT fibroblast viability loss – cell-based, RAS-independent, luminescence, dose response (AID 1933); type: functional; conditions: Homo sapiens
BJ [9] = assay: cells; type: functional, cell-based; conditions: Homo sapiens
BJ [10] = assay: BJ-TERT-LT-ST fibroblast viability loss – cell-based, RAS-independent, luminescence, dose response (AID 1935); type: functional; conditions: Homo sapiens;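 further: BJ fibroblasts immortalized with TERT plus LT and ST oncogenes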
[11] = DRD fibroblast viability loss – cell-based, non-viral oncogenic, luminescence, dose response (AID 1934); type: functional; conditions: Homo sapiens
[12] = HEK-293T viability loss after treatment – luminescence, T-cell screen hits, cytotoxicity control for TCR NF-kB inhibitor project, dose response (AID 489026); type: functional, cell-based;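 further: cells exposed to compound about 14 hours before the viability readout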
[13] = reduction of Shn3 3'UTR-driven luciferase in osteoblasts – cell-based, Clone20 osteoblasts, firefly luciferase, cherry-picked, dose response (AID 624132); type: functional;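 further: firefly luciferase luminescence from reporter carrying the Shn3 3'UTR in osteoblasts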
[14] = non-specific 3'UTR reporter inhibition in Clone20-Shn3RL – cell-based, Renilla luciferase, cherry-picked, counter-screen for Shn3 inhibitor project, dose response (AID 624133); type: functional
[15] = blockers of HIV-1 ZM109 envelope-driven cell-cell fusion – HeLa effector, CEM target cells, luciferase, cherry-pick, dose response (AID 652058); type: functional, cell-based;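 further: luciferase signal from HIV-1 Env mediated cell-cell fusion of effector and target cells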
[16] = HIV-1 AD8 envelope cell-cell fusion blockers – cherry-pick, dose response (AID 652062); type: functional, cell-based;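 further: luciferase signal from cell-cell fusion driven by HIV-1 clade B AD8 Env; potency is for inhibitors of fusion seen as a drop in luminescence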
[17] = biological target: T5, Short transient receptor potential channel 4 (Mus musculus, UniProt Q9QUQ5); assay: calcium entry via TRPC4 opening agents – cell-based, HEK293 TRPC4/mu-opioid, Fluo-4 calcium, dose response (AID 434937); type: functional
T5 sequence (Q9QUQ5 whole entry): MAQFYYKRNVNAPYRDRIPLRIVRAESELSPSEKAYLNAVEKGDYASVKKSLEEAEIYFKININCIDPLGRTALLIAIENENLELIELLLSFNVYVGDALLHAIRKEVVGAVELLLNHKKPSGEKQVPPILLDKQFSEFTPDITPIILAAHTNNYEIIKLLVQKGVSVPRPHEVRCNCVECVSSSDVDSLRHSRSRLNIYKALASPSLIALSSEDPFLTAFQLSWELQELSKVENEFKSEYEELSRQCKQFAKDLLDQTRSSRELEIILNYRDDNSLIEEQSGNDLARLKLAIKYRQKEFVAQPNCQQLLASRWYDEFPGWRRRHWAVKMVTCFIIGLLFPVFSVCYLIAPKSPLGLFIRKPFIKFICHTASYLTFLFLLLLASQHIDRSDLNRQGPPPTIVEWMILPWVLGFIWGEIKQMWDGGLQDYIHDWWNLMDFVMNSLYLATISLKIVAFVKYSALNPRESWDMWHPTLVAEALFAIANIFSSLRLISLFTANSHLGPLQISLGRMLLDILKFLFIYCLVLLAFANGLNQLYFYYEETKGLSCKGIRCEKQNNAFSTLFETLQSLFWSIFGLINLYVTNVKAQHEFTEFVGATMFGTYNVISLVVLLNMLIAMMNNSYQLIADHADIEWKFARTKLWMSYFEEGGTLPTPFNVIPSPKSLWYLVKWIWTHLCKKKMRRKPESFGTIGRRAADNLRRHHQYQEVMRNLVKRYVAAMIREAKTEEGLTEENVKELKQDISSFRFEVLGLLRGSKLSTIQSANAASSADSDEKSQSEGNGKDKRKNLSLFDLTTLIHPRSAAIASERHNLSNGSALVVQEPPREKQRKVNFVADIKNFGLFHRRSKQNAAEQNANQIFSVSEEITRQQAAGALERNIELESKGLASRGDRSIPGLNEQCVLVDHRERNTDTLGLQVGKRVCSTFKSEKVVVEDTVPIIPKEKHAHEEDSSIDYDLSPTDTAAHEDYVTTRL

Sequence of DNA dC->dU-editing enzyme APOBEC-3A (P31941 whole entry): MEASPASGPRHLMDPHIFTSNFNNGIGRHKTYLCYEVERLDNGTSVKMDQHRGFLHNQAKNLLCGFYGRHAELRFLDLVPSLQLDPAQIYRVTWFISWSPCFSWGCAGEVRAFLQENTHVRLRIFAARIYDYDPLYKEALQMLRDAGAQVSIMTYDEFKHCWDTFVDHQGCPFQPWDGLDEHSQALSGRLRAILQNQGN
Sequence of DNA dC->dU-editing enzyme APOBEC-3G (Q9HC16 whole entry): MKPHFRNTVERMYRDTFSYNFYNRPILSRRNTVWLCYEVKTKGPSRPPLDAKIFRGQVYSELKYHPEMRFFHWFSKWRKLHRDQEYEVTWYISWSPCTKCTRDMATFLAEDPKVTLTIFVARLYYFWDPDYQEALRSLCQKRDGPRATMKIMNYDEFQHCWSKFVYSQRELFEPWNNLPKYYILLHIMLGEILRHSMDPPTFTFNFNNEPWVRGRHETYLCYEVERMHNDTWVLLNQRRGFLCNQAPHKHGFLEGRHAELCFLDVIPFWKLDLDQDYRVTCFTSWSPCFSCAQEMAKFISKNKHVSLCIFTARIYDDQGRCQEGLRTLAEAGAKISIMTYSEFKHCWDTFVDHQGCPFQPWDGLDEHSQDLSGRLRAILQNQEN
T3 sequence (P63165 whole entry): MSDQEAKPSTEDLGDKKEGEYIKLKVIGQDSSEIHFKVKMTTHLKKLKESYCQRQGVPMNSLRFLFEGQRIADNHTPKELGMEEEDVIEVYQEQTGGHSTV
Sequence of Large T antigen (P03070 whole entry): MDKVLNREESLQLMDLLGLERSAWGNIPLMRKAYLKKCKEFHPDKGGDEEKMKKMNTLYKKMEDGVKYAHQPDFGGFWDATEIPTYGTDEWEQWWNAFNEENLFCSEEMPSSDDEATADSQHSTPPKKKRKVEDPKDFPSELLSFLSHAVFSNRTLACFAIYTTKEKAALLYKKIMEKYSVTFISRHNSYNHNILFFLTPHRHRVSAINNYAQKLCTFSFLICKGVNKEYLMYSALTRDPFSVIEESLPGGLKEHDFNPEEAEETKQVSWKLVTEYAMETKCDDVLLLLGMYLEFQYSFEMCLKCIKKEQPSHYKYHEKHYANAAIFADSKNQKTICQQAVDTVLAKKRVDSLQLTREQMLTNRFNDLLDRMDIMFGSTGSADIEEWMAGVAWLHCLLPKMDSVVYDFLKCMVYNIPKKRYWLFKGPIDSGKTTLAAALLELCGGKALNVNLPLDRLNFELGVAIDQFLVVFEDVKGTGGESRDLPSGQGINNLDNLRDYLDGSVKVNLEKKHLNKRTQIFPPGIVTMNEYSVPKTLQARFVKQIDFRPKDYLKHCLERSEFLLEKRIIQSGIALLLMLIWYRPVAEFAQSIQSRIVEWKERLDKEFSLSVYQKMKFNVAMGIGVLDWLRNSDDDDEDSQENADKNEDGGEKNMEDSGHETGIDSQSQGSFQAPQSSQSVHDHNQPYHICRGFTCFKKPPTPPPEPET
Sequence of Induced myeloid leukemia cell differentiation protein Mcl-1 (Q07820 whole entry): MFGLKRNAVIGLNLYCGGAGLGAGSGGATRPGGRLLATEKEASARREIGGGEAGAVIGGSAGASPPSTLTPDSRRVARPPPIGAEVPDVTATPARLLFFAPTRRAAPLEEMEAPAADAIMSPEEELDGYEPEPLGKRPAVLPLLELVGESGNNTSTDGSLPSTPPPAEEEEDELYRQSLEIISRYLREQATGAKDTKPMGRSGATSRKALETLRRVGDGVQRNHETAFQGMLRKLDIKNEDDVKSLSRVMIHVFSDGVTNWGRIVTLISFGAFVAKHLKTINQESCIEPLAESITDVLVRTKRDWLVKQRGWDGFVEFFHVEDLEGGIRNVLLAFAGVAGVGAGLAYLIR

CN1C(=O)/C(=C/c2ccc(-c3ccccc3[N+](=O)[O-])o2)S/C1=N\c1ccc(Cl)c(C(=O)O)c1
IC50 (Large T antigen): 52.8 µM (active)
IC50 [1]: 14 µM (active)
AC50 [2]: 10.6 µM (active)
EC50 (Protein RecA): 5.51 µM (active)
IC50 [3]: > 66.6 µM (inactive)
IC50 [4]: 17.7 µM (active)
AC50 [5]: 4.58 µM (active)

COc1ccc2c(/C=C/c3cc[n+](C)cc3)c[nH]c2c1
IC50 [6]: 6.12 µM (active)
IC50 [7]: 6.31 µM (active)

CCc1cc2c(s1)N1Cc3ccccc3C(C(=O)c3cccc([N+](=O)[O-])c3)=C1NC2=O
EC50 (BJ [8]): > 150 µM (not active)
EC50 (BJ [9]): > 150 µM (not active)
EC50 (BJ [10]): > 150 µM (inconclusive)
EC50 [11]: > 150 µM (not active)
IC50 [12]: > 80 µM (inactive)

COc1cc(C)c(NC(=O)C2CCN(S(=O)(=O)c3cccs3)CC2)cc1OC
IC50 [6]: 12 µM (active)
IC50 [7]: 13.9 µM (active)

O=C(Nc1ccc(S(=O)(=O)N2CCN(Cc3ccccc3)CC2)cc1)c1cnccn1
IC50 [12]: > 80 µM (inactive)
AC50 [13]: 1.65 µM (active)
AC50 [14]: 4.15 µM (active)
AC50 [15]: < 0.26 µM (active)
AC50 [16]: 4.9 µM (active)

CCOC(=O)C1(CCOc2ccccc2)CCN(Cc2ccc(OC)c(O)c2)CC1
EC50 [17]: 0.473 µM (active)

CC(=Nc1cc(C)cc(C)c1)N(C)CCNS(=O)(=O)c1ccc(Cl)cc1
IC50 [6]: 2.67 µM (active)
IC50 [7]: 4.92 µM (active)

CCCc1nc2sc3c(SCC(=O)NCc4ccco4)ncnc3c2c2c1CCC2
IC50 [6]: 15.8 µM (active)
IC50 [7]: 25.3 µM (active)

O=C(O)Cc1ccc(S(=O)(=O)N2CCCC2)s1
IC50 [6]: 17.4 µM (active)
IC50 [7]: 66.5 µM (active)
